Assay results: patent US20240402196A1 (Exact Sciences Corporation, priority 2018, published 2024)
“Also recorded” adds a separate entry of the source. Each block holds one molecule with its values, some of them ahead of it.

Assays:
[1] = biological target: T1, hemoglobin in stool samples (Homo sapiens, UniProt P68871+P69905); experiment: Accelerated shipping simulation (35C 16 hour challenge), hemoglobin % recovery by ELISA; design: To assess the stability of hemoglobin in stool samples, samples were exposed to simulated shipping stress conditions; from tissue; host or cells: stool samples;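 also: stool hemoglobin measured by ELISA before and after thermal-cycler shipping stress, stability given as percent of pre-stress hemoglobin recovered afterwards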
[2] = biological target: T1, hemoglobin in stool samples; experiment: as above; design: from tissue; host or cells: stool samples
[3] = biological target: T1, hemoglobin in stool samples; experiment: 3-Day extreme temperature shipping simulation, hemoglobin % recovery by ELISA; design: from tissue; host or cells: stool samples
Method: (§1) To assess the stability of hemoglobin in stool samples, samples were exposed to simulated shipping stress conditions using a thermal cycler. […] An ELISA based detection method is used to determine the hemoglobin concentrations of samples before and after exposure to the shipping simulation. Hemoglobin stability is calculated as a % recovery of hemoglobin after the samples have been exposed to the shipping simulation.
As an additional challenge, a shipping simulation meant to represent a “worst case” scenario was created using extreme temperatures.

[4] = biological target: T1, hemoglobin in stool samples; experiment: 7-Day shipping simulation, hemoglobin % recovery by ELISA; design: from tissue; host or cells: stool samples
Method: as §1
To assess the stability of hemoglobin in stool samples beyond 3 days, a 7-Day shipping simulation was created.

[5] = biological target: T1, hemoglobin in stool samples; experiment: 3-Day shipping simulation, hemoglobin % recovery by ELISA; design: from tissue; host or cells: stool samples;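 also: stool samples put through shipping stress in a thermal cycler, hemoglobin quantified by ELISA before and after, stability given as post-stress % of the pre-stress level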
Hb = biological target: T2, Hb (Homo sapiens, UniProt P68871+P69905); experiment: Appendix B additive screen, % Hb Recovery
T2 construct: To assess the stability of hemoglobin in stool samples, samples were exposed to simulated shipping stress conditions; from tissue; host or cells: stool samples

hemoglobin (Hb) = biological target: T3, hemoglobin (Hb) (Homo sapiens, UniProt P68871+P69905); experiment: Appendix B: additives in Hb Collection Buffer, % Hb Recovery
T3 construct: To assess the stability of hemoglobin in stool samples, samples were exposed to simulated shipping stress conditions; from tissue; host or cells: stool samples

[6] = biological target: T1, hemoglobin in stool samples; experiment: 7-Day modified shipping simulation, hemoglobin % recovery by ELISA; design: from tissue; host or cells: stool samples
hemoglobin = biological target: T4, hemoglobin (Homo sapiens, UniProt P68871+P69905); experiment: Appendix B additive screen in Hb Collection Buffer, % Hb Recovery
T4 construct: To assess the stability of hemoglobin in stool samples, samples were exposed to simulated shipping stress conditions; from tissue; host or cells: stool samples

[7] = additive concentrations as in the 10th table
[8] = additive concentrations as in the 9th table
[9] = additive concentrations as in the 8th table
[10] = concentrations and buffer pH 6.5 or 7.4 as in the 15th table
[11] = concentrations and buffer pH 6.5 or 7.4 as in the 14th table
[12] = concentrations and buffer pH 6.5 or 7.4 as in the 13th table

T3 sequence (P69905 2-142 limits assumed): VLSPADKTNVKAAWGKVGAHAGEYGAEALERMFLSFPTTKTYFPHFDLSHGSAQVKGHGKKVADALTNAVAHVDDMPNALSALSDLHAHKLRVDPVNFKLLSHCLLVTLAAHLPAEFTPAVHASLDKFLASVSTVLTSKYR
T3 sequence (P68871 2-147 limits assumed): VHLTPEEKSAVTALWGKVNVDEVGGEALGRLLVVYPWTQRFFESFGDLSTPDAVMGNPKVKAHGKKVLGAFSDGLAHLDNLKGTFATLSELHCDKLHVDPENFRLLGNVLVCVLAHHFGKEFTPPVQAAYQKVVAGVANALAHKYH
T1 sequence (P69905 2-142 limits assumed): as the sequence (P69905 2-142 limits assumed) above
T1 sequence (P68871 2-147 limits assumed): as the sequence (P68871 2-147 limits assumed) above
T2 sequence (P69905 2-142 limits assumed): as the sequence (P69905 2-142 limits assumed) above
T2 sequence (P68871 2-147 limits assumed): as the sequence (P68871 2-147 limits assumed) above
T4 sequence (P69905 2-142 limits assumed): as the sequence (P69905 2-142 limits assumed) above
T4 sequence (P68871 2-147 limits assumed): as the sequence (P68871 2-147 limits assumed) above

Structure (SMILES): [Ca+2].[Cl-].[Cl-] [Calcium Chloride]
- Results [2]: Calcium cation shows; also recorded: Improvement
- Notes (Hb stability vs Hb Collection Buffer) [3, 7]: Improved Hb
- Results (hemoglobin (Hb); Additive Concentration 10 mM): No improvement; also recorded: Improvement in % Hb
- Notes (Hb stability vs Hb Collection Buffer) [4, 8]: Improved Hb
- Results ([5]; Additive Concentration 10 mM): Calcium cation shows
- Results ([5]; additive concentration 5 mM): Calcium cation shows
- Results ([5]; additive concentration 10 mM): Calcium cation shows
- Results ([5]; additive concentration 20 mM): Calcium cation shows
- Results ([5]; additive concentration 30 mM): Calcium cation shows
- Results ([5]; additive concentration 40 mM): Calcium cation shows
- Results ([5]; additive concentration 50 mM): Calcium cation shows
- Notes (Hb stability vs Hb Collection Buffer) [5, 9]: Improved Hb
- Results (Hb): Calcium cation shows

Structure (SMILES): O=S(=O)([O-])[O-].[Mg+2] [Magnesium Sulfate]
- Results ([2]; additive concentration 10 mM): Improvement
- Notes (Hb stability vs Hb Collection Buffer) [3, 7]: Improved Hb
- Results (hemoglobin (Hb); Additive Concentration 10 mM): Improvement in % Hb
- Notes (Hb stability vs Hb Collection Buffer) [4, 8]: Improved Hb
- Results ([5]; Additive Concentration 10 mM): Magnesium Cation shows
- Results ([5]; additive concentration 0.001M): Magnesium Cation shows
- Results ([5]; additive concentration 5 mM): Magnesium Cation shows
- Results ([5]; additive concentration 0.01M): Magnesium Cation shows
- Results ([5]; additive concentration 10 mM): Magnesium Cation shows
- Results ([5]; additive concentration 20 mM): Magnesium Cation shows
- Results ([5]; additive concentration 30 mM): Magnesium Cation shows
- Results ([5]; additive concentration 40 mM): Magnesium Cation shows
- Results ([5]; additive concentration 0.05M): Magnesium Cation shows
- Results ([5]; additive concentration 50 mM): Magnesium Cation shows
- Notes (Hb stability vs Hb Collection Buffer) [5, 9]: Improved Hb

Structure (SMILES): O=NO [Sodium Nitrite]
- Results (hemoglobin): No Improvement

Structure (SMILES): O=C(O)c1cccnc1 [Vitamin B3]
- Results (hemoglobin): No Improvement

Second part, led by results:

- Results ([1]; additive concentration 0.377 mM): No Improvement
- Results ([1]; additive concentration 1 mM): No Improvement
Structure (SMILES): O=C(O)[C@@H](CO)O[C@@H]1O[C@H](CO)[C@@H](O)[C@H](O)[C@@H]1O

- Results ([2]; additive concentration 50 uM): No Improvement
- Results ([2]; additive concentration 500 uM): No Improvement
- Results ([2]; additive concentration 50 mM): No Improvement
- Results ([2]; additive concentration 96 mM): No Improvement
- Results ([2]; additive concentration 3.5M): Improvement
- Notes (Hb stability vs Hb Collection Buffer) [3, 7]: Improved Hb
- Notes (Hb stability vs Hb Collection Buffer) [4, 8]: Improved Hb
- Results ([5]; Additive Concentration 1M): Betaine shows improvement
- Results ([5]; additive concentration 0.05M): Betaine shows improvement
- Results ([5]; additive concentration 0.5M): Betaine shows improvement
- Results ([5]; additive concentration 1.25M): Betaine shows improvement
- Results ([5]; additive concentration 3M): Betaine shows improvement
- Results ([5]; additive concentration 3.5M): Betaine shows improvement
- Results ([5]; additive concentration 3.75M): Betaine shows improvement
- Results ([5]; additive concentration 4M): Betaine shows improvement
- Results ([5]; additive concentration 5M): Betaine shows improvement
- Results ([5]; additive concentration […]): Betaine shows improvement
- Notes (Hb stability vs Hb Collection Buffer) [5, 9]: Improved Hb
- Results (Hb): Betaine shows improvement
Structure (SMILES): C[N+](C)(C)CC(=O)O [Betaine]

- Results ([2]; additive concentration 0.0003%, pH 6.5): Improvement
- Results ([2]; additive concentration 0.0003%; pH 6.4): Improvement in % Hb
- Results ([2]; additive concentration 0.0003%; pH 6.5): Improvement in % Hb
- Results ([2]; additive concentration 0.0003%; pH 6.6): Improvement in % Hb
- Results ([2]; additive concentration 0.0003%; pH 6.7): Improvement in % Hb
- Results ([2]; additive concentration 0.0003%; pH 6.8): Improvement in % Hb
- Results ([2]; additive concentration 0.0003%; pH 6.9): Improvement in % Hb
- Results ([2]; additive concentration 0.0003%; pH 7.0): Improvement in % Hb
- Results ([2]; additive concentration 0.0003%; pH 7.1): Improvement in % Hb
- Results ([2]; additive concentration 0.0003%; pH 7.2): Improvement in % Hb
- Results ([2]; additive concentration 0.0003%; pH 7.3): Improvement in % Hb
- Results ([2]; additive concentration 0.0003%; pH 7.4): Improvement in % Hb
- Results ([2]; additive concentration 0.0003%; pH 7.5): Improvement in % Hb
- Notes (Hb stability vs Hb Collection Buffer) [3, 10]: Improved
- Notes (Hb stability vs Hb Collection Buffer) [4, 11]: Improved
- Notes (Hb stability vs Hb Collection Buffer) [5, 12]: Improved
Structure (SMILES): C=CC1=C(C)c2cc3[n-]c(cc4[n-]c(cc5nc(cc1n2)C(C)=C5C=C)c(C)c4CCC(=O)O)c(CCC(=O)O)c3C.[Cl-].[Fe+3] [Hemin]

- Notes (Hb stability vs Hb Collection Buffer) ([2]; 35C 16 hour challenge; concentrations and pH as in the 19th table): Improved Hb
- Hb stability (in words) ([2]; 35C 16 hour challenge; concentrations of 2.5-10 μM; adjusted pH range of 6.2-7.4): increased Hb stability
- Results ([2]; additive concentration 5 uM): Improvement in % Hb
- Results ([2]; additive concentration 5 uM, pH 6.5): Improvement
- Results ([2]; additive concentration 5 uM, pH 7.4): Improvement
- Notes (Hb stability vs Hb Collection Buffer) [3, 10]: Improved
- Results (hemoglobin (Hb); Additive Concentration 0.1 uM): No Improvement
- Results (hemoglobin (Hb); additive concentration 5 uM): Improvement in % Hb
- Results (hemoglobin (Hb); additive concentration 10 uM): Improvement in % Hb
- Notes (Hb stability vs Hb Collection Buffer) [4, 11]: Improved
- Notes (Hb stability vs Hb Collection Buffer) ([6]; 3-6 μM, buffer pH 6.4-7.0 as in the 17th table): Improved Hb
- Hb stability (in words) ([6]; concentrations of 3-6 μM, adjusted pH range of 6.4-7.0): increased Hb stability
- Notes (Hb stability vs Hb Collection Buffer) ([5]; 3-Day and 7-Day Shipping Simulation, concentrations and pH as in the 18th table): Improved Hb
- Hb stability (in words) ([5]; 3 and 7 day Shipping Simulations, concentrations of 2.5-10 µM, adjusted pH of 6.8): increased Hb stability
- Notes (Hb stability vs Hb Collection Buffer) [5, 12]: Improved
Structure (SMILES): C=Cc1c(C)c2cc3[nH]c(cc4nc(cc5nc(cc1[nH]2)C(C)=C5CCC(=O)[O-])C(CCC(=O)[O-])=C4C)c(C)c3C=C.[Co+2] [Protoporphyrin IX Co, Protoporphyrin IX Cobalt]
- Hb stability compared to the Polymedco buffer (in words) ([3]; additive in Hb Collection Buffer): improved Hb stability compared to the Polymedco buffer

- Results ([2]; additive concentration 1 uM, pH 6.5): Improvement
- Results ([2]; additive concentration 1 uM, pH 7.4): Improvement
- Notes (Hb stability vs Hb Collection Buffer) [3, 10]: Improved
- Results (hemoglobin (Hb); Additive Concentration 0.001 uM): No Improvement
- Results (hemoglobin (Hb); Additive Concentration 0.01 uM): Improvement in % Hb
- Results (hemoglobin (Hb); Additive Concentration 0.1 uM): Improvement in % Hb
- Results (hemoglobin (Hb); Additive Concentration 1 uM): Improvement in % Hb
- Results (hemoglobin (Hb); additive concentration 10 uM): Improvement in % Hb
- Results (hemoglobin (Hb); additive concentration 100 uM): Improvement in % Hb
- Notes (Hb stability vs Hb Collection Buffer) [4, 11]: Improved
- Notes (Hb stability vs Hb Collection Buffer) [5, 12]: Improved
Structure (SMILES): C=CC1=C(C)c2cc3[n-]c(cc4nc(cc5[n-]c(cc1n2)c(C)c5C=C)C(C)=C4CCC(=O)O)c(CCC(=O)O)c3C.[Zn+2] [Protoporphyrin IX Zn, Protoporphyrin IX Zinc]
